Active and inactive are the calls of the source. The rule behind the calls is not given here.

In series [1] the test system is Hepatocyte. The series is described as follows: Anti-MASH activity in fatty acid induced human iPSC derived Hepatocyte assessed as reduction in lipid level in hepatocyte at 10 uM measured after 48 hrs. The series is classed as functional, cell-based.
The subject of series [2] is Hepatocyte. The series is described as follows: Anti-MASH activity in fatty acid induced human iPSC derived Hepatocyte assessed as reduction in lipid droplet size in hepatocyte at 10 uM measured after 48 hrs. The series is classed as functional, cell-based.
Series [3] is described as follows: Mutagenicity in Salmonella typhimurium TA100 at 5 to 100 mM incubated for 96 hrs in absence of rat liver s9 microsomes by Ames test. Format: toxicity. Conditions: salmonella enterica subsp. enterica serovar typhimurium, 100000 µM, dose 5-100 mM.
A short description of series [4]: Mutagenicity in Salmonella typhimurium TA100 at 5 to 100 mM incubated for 96 hrs in presence of rat liver s9 microsomes by Ames test. Format: toxicity, Microsome. The note with it: salmonella enterica subsp. enterica serovar typhimurium, 100000 µM, dose 5-100 mM. (In general: In the Ames test, an excess of revertant colonies over the control signals mutagenicity.)

Series [5] can be described thus: Mutagenicity in Salmonella typhimurium TA1535 at 5 to 100 mM incubated for 96 hrs in absence of rat liver s9 microsomes by Ames test. The series is classed as toxicity. Conditions: salmonella enterica subsp. enterica serovar typhimurium, 100000 µM, dose 5-100 mM.
A short description of series [6]: Mutagenicity in Salmonella typhimurium TA98 at 5 to 100 mM incubated for 96 hrs in absence of rat liver s9 microsomes by Ames test. Conditions: salmonella enterica subsp. enterica serovar typhimurium, 100000 µM, dose 5-100 mM. Format: toxicity.
A short description of series [7]: Mutagenicity in Salmonella typhimurium TA1537 at 5 to 100 mM incubated for 96 hrs in presence of rat liver s9 microsomes by Ames test. The series is classed as toxicity, Microsome. Conditions: salmonella enterica subsp. enterica serovar typhimurium, 100000 µM, dose 5-100 mM.
A short description of series [8]: Mutagenicity in Salmonella typhimurium TA1537 at 5 to 100 mM incubated for 96 hrs in absence of rat liver s9 microsomes by Ames test. Format: toxicity. Conditions: salmonella enterica subsp. enterica serovar typhimurium, 100000 µM, dose 5-100 mM.
The nature of series [9]: Mutagenicity in Salmonella typhimurium TA1535 at 5 to 100 mM incubated for 96 hrs in presence of rat liver s9 microsomes by Ames test. Format: toxicity, Microsome. Conditions: salmonella enterica subsp. enterica serovar typhimurium, 100000 µM, dose 5-100 mM.
Series [10] can be described thus: Mutagenicity in Salmonella typhimurium TA98 at 5 to 100 mM incubated for 96 hrs in presence of rat liver s9 microsomes by Ames test. The series is classed as toxicity, Microsome. Conditions: salmonella enterica subsp. enterica serovar typhimurium, 100000 µM, dose 5-100 mM.
A further series in a line: in vitro. The note with it: human, Caco-2.
Series [11] in a line: Metabolic stability in human liver microsomes assessed as clearance. Format: ADME, Microsome. For orientation: Liver microsomes are vesicles of endoplasmic reticulum, rich in cytochrome P450 enzymes.

Description for in vitro: Apparent permeability of the compound in human Caco-2 cells across apical to basolateral side

As to `CC(C)c1cc(Oc2c(Cl)cc(-n3nc(C#N)c(=O)[nH]c3=O)cc2Cl)n[nH]c1=O`, the result in the series on Hepatocyte [1] and in the series on Hepatocyte [2] was Active.
A word on the Papp A→B: it is how fast a substance crosses the layer from the apical side. Read a low Papp A→B as slow passage. As to `CSc1ccccc1[C@H]1CCCN1C(=O)CNC(=O)N(Cc1ccc(N)c(Cl)c1)Cc1nnn(C)n1`, the Activity entry in [3], in series [4], in series [5], in series [6], in [7] and in series [8] was “Non-toxic” in each case. For the same compound, the Activity entry in series [9] and in series [10] was “Non-toxic” throughout. Further, the outcome in the series on Hepatocyte [1] and in the series on Hepatocyte [2] was Active. Also, the Papp A→B in the series “in vitro” amounted to 5 ×10⁻⁶ cm/s.
As to `Cn1nnc(CN(Cc2ccc(N)c(Cl)c2)C(=O)NCC(=O)N2CCC[C@@H]2c2ccccc2Br)n1`, the Activity entry in [3], in series [4], in [5], in series [6], in [7] and in series [8] was “Non-toxic” in each case. The Activity entry in [9] and in [10] was “Non-toxic” in each case. Also, the apical-to-basolateral permeability (Papp A→B) in the series “in vitro” was 6.6 ×10⁻⁶ cm/s.
In the case of `CSc1ccccc1[C@H]1CCCN1C(=O)CNC(=O)N(Cc1cnc(N)nc1)Cc1ncc(C)s1`, the Activity entry in series [3], in [4], in [5], in [6], in series [7] and in [8] was “Non-toxic” in each case. The Activity entry in series [9] and in series [10] was “Non-toxic” throughout. The CLH in [11] came to 60 µL/min/mg. Besides, the apical-to-basolateral permeability (Papp A→B) in “in vitro” was found to be 0.8 ×10⁻⁶ cm/s.

(Values after ChEMBL document CHEMBL6103649, “Optimization of Cyclophilin B-Targeted Tri-vector Inhibitors for Novel MASH Treatments” (J Med Chem, 2025).)
